From ChEMBL document CHEMBL6071138, “Design, synthesis, anti-tumor activity and mechanism of novel PROTACs as degraders of PD-L1 and inhibitors of PD-1/PD-L1 interaction” (Bioorg Med Chem, 2024)
Active and inactive are the calls of the source. The rule behind the calls is not given here.

Assays:
[1] = molecular target: von Hippel-Lindau disease tumor suppressor/Programmed cell death 1 ligand 1 (Homo sapiens) (UniProt P40337+Q9NZQ7); experiment: PROTAC activity at VHL/PD-L1 in human HCC827 cells assessed as induction of PD-L1 protein degradation incubated for 24 hrs by Western blot analysis; type: cell-based; conditions: dose 0.25-10 µM
Sequence of von Hippel-Lindau disease tumor suppressor/Programmed cell death 1 ligand 1 (Homo sapiens) (P40337 whole entry, looked up, the tested form may be a part): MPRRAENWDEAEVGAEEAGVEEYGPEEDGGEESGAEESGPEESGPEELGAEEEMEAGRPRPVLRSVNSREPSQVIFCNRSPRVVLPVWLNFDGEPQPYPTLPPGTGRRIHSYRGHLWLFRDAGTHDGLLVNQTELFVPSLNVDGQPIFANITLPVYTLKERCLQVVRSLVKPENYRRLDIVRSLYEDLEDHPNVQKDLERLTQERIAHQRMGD
Sequence of von Hippel-Lindau disease tumor suppressor/Programmed cell death 1 ligand 1 (Homo sapiens) (Q9NZQ7 whole entry, looked up, the tested form may be a part): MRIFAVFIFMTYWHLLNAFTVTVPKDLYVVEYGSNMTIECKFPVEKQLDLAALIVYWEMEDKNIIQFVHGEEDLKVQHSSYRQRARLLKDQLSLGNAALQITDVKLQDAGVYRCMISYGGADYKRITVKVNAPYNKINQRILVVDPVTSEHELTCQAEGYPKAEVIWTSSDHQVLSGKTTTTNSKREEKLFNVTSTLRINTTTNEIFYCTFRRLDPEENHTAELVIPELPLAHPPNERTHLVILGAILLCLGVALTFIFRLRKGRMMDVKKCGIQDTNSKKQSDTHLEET

[2] = Binding affinity to C-terminal fused with Fc region of human IgG1 recombinant human PD-L1 extracellular domain (1 to 239 residues) extracted from HEK293 cells assessed as dissociation constant by MST analysis; type: cell-free
HCC827 [3] = experiment: Effect on PD-L1 protein expression in human HCC827 cells at 10 uM incubated for 24 hrs by Western blot analysis; type: functional, cell-based
[4] = molecular target: T1, Protein cereblon/Programmed cell death 1 ligand 1 (Homo sapiens) (UniProt Q9NZQ7+Q96SW2); experiment: PROTAC activity at CRBN/PD-L1 in human HCC827 cells assessed as induction of PD-L1 protein degradation incubated for 24 hrs by Western blot analysis; type: cell-based; conditions: dose 0.25-10 µM
T1 sequence (Q96SW2 whole entry, looked up): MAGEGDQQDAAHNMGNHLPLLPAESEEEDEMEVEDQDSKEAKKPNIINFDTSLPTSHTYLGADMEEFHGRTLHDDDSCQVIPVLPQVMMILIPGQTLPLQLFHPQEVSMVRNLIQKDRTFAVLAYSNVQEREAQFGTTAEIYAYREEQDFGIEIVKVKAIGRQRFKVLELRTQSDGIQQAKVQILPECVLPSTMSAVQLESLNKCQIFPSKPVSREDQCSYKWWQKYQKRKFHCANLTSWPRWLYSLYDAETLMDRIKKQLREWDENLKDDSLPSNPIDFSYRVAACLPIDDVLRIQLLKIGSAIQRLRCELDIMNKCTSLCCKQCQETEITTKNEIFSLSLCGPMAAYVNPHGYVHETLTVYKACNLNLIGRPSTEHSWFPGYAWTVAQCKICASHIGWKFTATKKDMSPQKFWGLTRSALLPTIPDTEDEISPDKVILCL
T1 sequence (Q9NZQ7 whole entry, looked up): as the sequence (Q9NZQ7 whole entry, looked up, the tested form may be a part) above

[5] = molecular target: T1, Protein cereblon/Programmed cell death 1 ligand 1 (Homo sapiens); experiment: PROTAC activity at CRBN/PD-L1 in human HCC827 cells assessed as induction of PD-L1 degradation at 10 uM preincubated with pomalidomide for 4 hrs followed by compound addition and measured after 24 hrs by Western blotting; type: cell-based
MC-38 [6] = experiment: Antitumor activity against mouse MC38 cells implanted in female C57BL/6 mouse model assessed as tumor growth inhibition at 20 mg/kg, ip administered once daily for 15 days relative to control; type: functional; conditions: MC-38, 360 h, time 15 day, read-out: TGI
[7] = molecular target: T1, Protein cereblon/Programmed cell death 1 ligand 1 (Homo sapiens); experiment: PROTAC activity at CRBN/PD-L1 in human HCC827 cells assessed as induction of PD-L1 internalization at cell membrane by measuring increase in fluorescence intensity around nucleus at 10 uM incubated for 12 hrs by DAPI immunostaining based confocal scanning microscopic analysis
Mus musculus [8] = experiment: Immunoregulatory activity in female C57BL/6 mouse model implanted with mouse MC38 cells assessed as increase in CD8+/CD4+ ratio in lymph node at 10 to 20 mg/kg, ip administered once daily for 15 days by flow cytometric analysis; type: functional, organism-based; conditions: dose 10-20 mg/kg, time 15.0 day
[9] = molecular target: T1, Protein cereblon/Programmed cell death 1 ligand 1 (Homo sapiens); experiment: PROTAC activity at CRBN/PD-L1 in human HCC827 cells assessed as induction of PD-L1 degradation at 10 uM preincubated with 5-((5-((2-chloro-2'-fluoro-[1,1'-biphenyl]-3-yl)methoxy)-2-(((2-hydroxyethyl)amino)methyl)phenoxy)methyl)nicotinonitrile for 4 hrs followed by compound addition and measured after 24 hrs by Western blotting; type: cell-based
Mus musculus [10] = experiment: Immunoregulatory activity in female C57BL/6 mouse model implanted with mouse MC38 cells assessed as increase in CXCL9 mRNA level in tumor at 10 to 20 mg/kg, ip administered once daily for 15 days by qPCR analysis; type: functional, organism-based; conditions: dose 10-20 mg/kg, time 15.0 day
Mus musculus [11] = experiment: Immunoregulatory activity in female C57BL/6 mouse model implanted with mouse MC38 cells assessed as increase in CXCR3 mRNA level in tumor at 10 to 20 mg/kg, ip administered once daily for 15 days by qPCR analysis; type: functional, organism-based; conditions: dose 10-20 mg/kg, time 15.0 day
[12] = Toxicity in female C57BL/6 mouse implanted with mouse MC38 cells assessed as effect on body weight at 10 to 20 mg/kg, ip administered once daily for 15 days; type: organism-based; conditions: in vivo, 360 h, dose 10-20 mg/kg, time 15 day
[13] = molecular target: T1, Protein cereblon/Programmed cell death 1 ligand 1 (Homo sapiens); experiment: PROTAC activity at CRBN/PD-L1 in human HCC827 cells assessed as induction of PD-L1 protein degradation at 10 uM measured within 24 hrs by Western blot analysis relative to control; type: cell-based
[14] = molecular target: T1, Protein cereblon/Programmed cell death 1 ligand 1 (Homo sapiens); experiment: PROTAC activity at CRBN/PD-L1 in human HCC827 cell cytoplasm assessed as decrease in PD-L1 expression in cytoplasm at 10 uM incubated for 24 hrs by Western blotting; type: subcellular
MC-38 [15] = experiment: Antitumor activity against mouse MC38 cells implanted in female C57BL/6 mouse model assessed as tumor growth inhibition at 10 mg/kg, ip administered once daily for 15 days relative to control; type: functional; conditions: MC-38, 360 h, time 15 day, read-out: TGI
[16] = molecular target: T1, Protein cereblon/Programmed cell death 1 ligand 1 (Homo sapiens); experiment: PROTAC activity at CRBN/PD-L1 in human 786-0 cells assessed as induction of PD-L1 protein degradation at 0.25 to 10 uM incubated for 24 hrs by Western blot analysis; type: cell-based; conditions: dose 0.25-10 µM
[17] = molecular target: T1, Protein cereblon/Programmed cell death 1 ligand 1 (Homo sapiens); experiment: PROTAC activity at CRBN/PD-L1 in human SK-N-AS cells assessed as induction of PD-L1 protein degradation at 0.25 to 10 uM incubated for 24 hrs by Western blot analysis; type: cell-based; conditions: dose 0.25-10 µM
HCC827 [18] = experiment: Antitumor activity against human HCC827 cells co-cultured with PMA-activated human Jurkat T cells assessed as T cell mediated tumor killing by measuring survival rate at 5 uM incubated for 24 hrs by CCK8 assay relative to control; type: functional; conditions: read-out: Survival
Mus musculus [19] = experiment: Immunoregulatory activity in female C57BL/6 mouse model implanted with mouse MC38 cells assessed as increase in CD8+/CD4+ ratio in tumor at 10 to 20 mg/kg, ip administered once daily for 15 days by flow cytometric analysis; type: functional, organism-based; conditions: dose 10-20 mg/kg, time 15.0 day
Mus musculus [20] = experiment: Immunoregulatory activity in female C57BL/6 mouse model implanted with mouse MC38 cells assessed as increase in granzyme B expression at 10 to 20 mg/kg, ip administered once daily for 15 days by hematoxylin staining based immunohistochemistry; type: functional, organism-based; conditions: dose 10-20 mg/kg, time 15.0 day
Mus musculus [21] = experiment: Immunoregulatory activity in female C57BL/6 mouse model implanted with mouse MC38 cells assessed as increase in perforin expression at 10 to 20 mg/kg, ip administered once daily for 15 days by hematoxylin staining based immunohistochemistry; type: functional, organism-based; conditions: dose 10-20 mg/kg, time 15.0 day
[22] = molecular target: T1, Protein cereblon/Programmed cell death 1 ligand 1 (Homo sapiens); experiment: PROTAC activity at CRBN/PD-L1 in human HCC827 cells assessed as induction of PD-L1 degradation at 10 uM preincubated with MG132 for 4 hrs followed by compound addition and measured after 24 hrs by Western blotting; type: cell-based
[23] = molecular target: T1, Protein cereblon/Programmed cell death 1 ligand 1 (Homo sapiens); experiment: PROTAC activity at CRBN/PD-L1 in human HCC827 cell membrane assessed as decrease in PD-L1 expression in membrane incubated for 24 hrs by flow cytometric analysis; type: cell membranes; conditions: dose 2.5-10 µM
Mus musculus [24] = experiment: In vivo PROTAC activity at CRBN/PD-L1 in female C57BL/6 mouse implanted with mouse MC38 cells assessed as decrease in PD-L1 protein expression in tumor at 10 to 20 mg/kg, ip administered once daily for 15 days by hematoxylin staining based immunohistochemistry; type: functional, organism-based; conditions: dose 10-20 mg/kg, time 15.0 day
[25] = molecular target: T1, Protein cereblon/Programmed cell death 1 ligand 1 (Homo sapiens); experiment: PROTAC activity at CRBN/PD-L1 in human HCC827 cells assessed as induction of PD-L1 internalization at cell membrane by measuring decrease in fluorescence intensity of cell membrane at 10 uM incubated for 12 to 24 hrs by DAPI immunostaining based confocal scanning microscopic analysis; conditions: time 12-24 hrs
[26] = molecular target: Programmed cell death protein 1/Programmed cell death 1 ligand 1 (Homo sapiens, UniProt Q9NZQ7); experiment: Inhibition of human PD-1/PD-L1 interaction by HTRF assay; type: protein-complex assay
Sequence of Programmed cell death protein 1/Programmed cell death 1 ligand 1 (Q15116 whole entry): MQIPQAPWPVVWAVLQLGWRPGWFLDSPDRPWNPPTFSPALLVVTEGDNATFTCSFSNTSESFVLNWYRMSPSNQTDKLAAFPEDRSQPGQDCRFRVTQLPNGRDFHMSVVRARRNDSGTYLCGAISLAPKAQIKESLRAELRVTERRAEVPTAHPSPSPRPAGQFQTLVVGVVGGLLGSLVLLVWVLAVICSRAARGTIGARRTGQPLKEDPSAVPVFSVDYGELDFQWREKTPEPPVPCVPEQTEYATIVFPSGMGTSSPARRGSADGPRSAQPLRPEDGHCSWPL
Sequence of Programmed cell death protein 1/Programmed cell death 1 ligand 1 (Q9NZQ7 whole entry): as the sequence (Q9NZQ7 whole entry, looked up, the tested form may be a part) above

[27] = molecular target: T1, Protein cereblon/Programmed cell death 1 ligand 1 (Homo sapiens); experiment: PROTAC activity at CRBN/PD-L1 in human HCC827 cells assessed as induction of PD-L1 degradation at 10 uM preincubated with bafilomycin A1 for 4 hrs followed by compound addition and measured after 24 hrs by Western blotting; type: cell-based
[28] = molecular target: T1, Protein cereblon/Programmed cell death 1 ligand 1 (Homo sapiens); experiment: PROTAC activity at CRBN/PD-L1 in human HCC827 cell membrane assessed as decrease in PD-L1 expression in membrane at 10 uM incubated for 24 hrs by Western blotting; type: cell membranes
[29] = molecular target: Protein cereblon/Programmed cell death 1 ligand 1 (Mus musculus) (UniProt Q9EP73+Q8C7D2); experiment: PROTAC activity at CRBN/PD-L1 in mouse MC38 cells assessed as induction of PD-L1 protein degradation at 0.25 to 10 uM incubated for 24 hrs by Western blot analysis; type: cell-based; conditions: dose 0.25-10 µM
Sequence of Protein cereblon/Programmed cell death 1 ligand 1 (Mus musculus) (Q8C7D2 whole entry partner): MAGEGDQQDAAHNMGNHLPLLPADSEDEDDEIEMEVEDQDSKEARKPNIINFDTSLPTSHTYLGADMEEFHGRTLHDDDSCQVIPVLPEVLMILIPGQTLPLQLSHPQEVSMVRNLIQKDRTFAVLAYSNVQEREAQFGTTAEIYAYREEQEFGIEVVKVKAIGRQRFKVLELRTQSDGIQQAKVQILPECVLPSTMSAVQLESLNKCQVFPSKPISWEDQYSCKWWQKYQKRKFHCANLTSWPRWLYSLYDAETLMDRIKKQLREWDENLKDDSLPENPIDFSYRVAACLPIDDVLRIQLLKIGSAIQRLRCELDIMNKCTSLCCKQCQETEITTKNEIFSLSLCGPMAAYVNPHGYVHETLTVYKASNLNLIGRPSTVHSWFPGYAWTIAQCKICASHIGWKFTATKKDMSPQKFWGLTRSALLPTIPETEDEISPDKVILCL
Sequence of Protein cereblon/Programmed cell death 1 ligand 1 (Mus musculus) (Q9EP73 19-290 limits assumed): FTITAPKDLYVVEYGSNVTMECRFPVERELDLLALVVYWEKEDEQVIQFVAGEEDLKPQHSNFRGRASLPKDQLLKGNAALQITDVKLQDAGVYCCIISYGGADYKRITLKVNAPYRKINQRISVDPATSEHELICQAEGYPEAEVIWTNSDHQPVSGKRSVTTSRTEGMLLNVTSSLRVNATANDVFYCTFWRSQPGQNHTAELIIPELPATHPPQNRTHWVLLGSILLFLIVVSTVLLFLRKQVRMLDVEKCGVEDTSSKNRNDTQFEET

Mus musculus [30] = experiment: Immunoregulatory activity in female C57BL/6 mouse model implanted with mouse MC38 cells assessed as increase in CXCL10 mRNA level in tumor at 10 to 20 mg/kg, ip administered once daily for 15 days by qPCR analysis; type: functional, organism-based; conditions: dose 10-20 mg/kg, time 15.0 day
HCC827 [31] = experiment: Antitumor activity against human HCC827 cells co-cultured with PMA-activated human Jurkat T cells assessed as T cell mediated tumor killing by measuring survival rate at 10 uM incubated for 24 hrs by CCK8 assay relative to control; type: functional; conditions: read-out: Survival
[32] = molecular target: T1, Protein cereblon/Programmed cell death 1 ligand 1 (Homo sapiens); experiment: PROTAC activity at CRBN/PD-L1 in human HCC827 cells assessed as induction of PD-L1 protein degradation at 20 uM measured within 24 hrs by Western blot analysis relative to control; type: cell-based

Structure (SMILES): Cc1ncsc1-c1ccc([C@H](C)NC(=O)[C@@H]2C[C@@H](O)CN2C(=O)[C@@H](NC(=O)CCOCCOCCOCCOCCNCc2ccc(OCc3cccc(-c4ccccc4F)c3Cl)cc2OCc2cncc(C#N)c2)C(C)(C)C)cc1
- Activity [1]: Dose-Dependent Effect

Structure (SMILES): N#Cc1cncc(COc2cc(OCc3cccc(-c4ccccc4F)c3Cl)ccc2CNCCO)c1
- Kd [2]: 20.2 nM
- Activity (HCC827 [3]): inactive

Structure (SMILES): N#Cc1cncc(COc2cc(OCc3cccc(-c4ccccc4F)c3Cl)ccc2CNCc2cn(CCCCCC(=O)Nc3cccc4c3CN(C3CCC(=O)NC3=O)C4=O)nn2)c1 (stereo not given)
- Activity [4]: Dose-Dependent Effect

Structure (SMILES): Cc1ncsc1-c1ccc([C@H](C)NC(=O)[C@@H]2C[C@@H](O)CN2C(=O)[C@@H](NC(=O)CCCNCc2ccc(OCc3cccc(-c4ccccc4F)c3Cl)cc2OCc2cncc(C#N)c2)C(C)(C)C)cc1
- Activity [1]: Dose-Dependent Effect

Structure (SMILES): N#Cc1cncc(COc2cc(OCC3C=CC=C(c4ccccc4F)C3Cl)ccc2CNCCOCCOCCOCCOCCOCCOCCC(=O)Nc2cccc3c2CN(C2CCC(=O)NC2=O)C3=O)c1 (stereo not given)
- Activity [4]: Dose-Dependent Effect

Structure (SMILES): N#Cc1cncc(COc2cc(OCc3cccc(-c4ccccc4F)c3Cl)ccc2CNCCOCCOCCOCCNc2cccc3c2C(=O)N(C2CCC(=O)NC2=O)C3=O)c1 (stereo not given)
- Activity [5]: inactive
- inhibition in vivo at 20 mg/kg (MC-38 [6]): 54.9%
- Activity [7]: Active
- Activity (Mus musculus [8]): Active
- Activity [9]: inactive
- Activity (Mus musculus [10]): Active
- Activity (Mus musculus [11]): Active
- Activity [12]: Non-Toxic
- Activity [13]: 58%
- Activity [14]: Active
- inhibition in vivo at 10 mg/kg (MC-38 [15]): 34.6%
- Activity [16]: Active
- Activity [17]: Active
- Kd [2]: 251 nM
- viability at 5 µM (HCC827 [18]): 73.2%
- Activity (Mus musculus [19]): Active
- Activity (Mus musculus [20]): Active
- Activity (Mus musculus [21]): Active
- Activity [22]: inactive
- Activity [4]: Dose-Dependent Effect
- Activity [23]: Dose-Dependent Effect
- Activity (Mus musculus [24]): Active
- Activity [25]: Active
- IC50 [26]: 219 nM
- Activity [27]: inactive
- Activity [28]: Active
- Activity [29]: Active
- Activity (Mus musculus [30]): Active

Structure (SMILES): N#Cc1cncc(COc2cc(OCc3cccc(-c4ccccc4F)c3Cl)ccc2CNCCOCCOCCNc2cccc3c2C(=O)N(C2CCC(=O)NC2=O)C3=O)c1 (stereo not given)
- Activity [5]: inactive
- inhibition in vivo at 20 mg/kg (MC-38 [6]): 57.4%
- Activity [7]: Active
- Activity (Mus musculus [8]): Active
- Activity [9]: inactive
- Activity (Mus musculus [10]): Active
- Activity (Mus musculus [11]): Active
- Activity [12]: Non-Toxic
- Activity [14]: Active
- inhibition in vivo at 10 mg/kg (MC-38 [15]): 48.7%
- Activity [16]: Active
- Activity [17]: Active
- Kd [2]: 301 nM
- Activity (Mus musculus [19]): Active
- viability at 10 µM (HCC827 [31]): 50.6%
- Activity (Mus musculus [20]): Active
- Activity (Mus musculus [21]): Active
- Activity [22]: inactive
- Activity [4]: Dose-Dependent Effect
- Activity [23]: Dose-Dependent Effect
- Activity (Mus musculus [24]): Active
- Activity [25]: Active
- IC50 [26]: 197 nM
- Activity [32]: 60.9%
- Activity [27]: inactive
- Activity [28]: Active
- Activity [29]: Active
- Activity (Mus musculus [30]): Active

Structure (SMILES): N#Cc1cncc(COc2cc(OCc3cccc(-c4ccccc4F)c3Cl)ccc2CNCCCCCNc2cccc3c2C(=O)N(C2CCC(=O)NC2=O)C3=O)c1 (stereo not given)
- Activity [4]: Dose-Dependent Effect

Structure (SMILES): Nc1cccc2c1C(=O)N(C1CCC(=O)NC1=O)C2=O (stereo not given)
- Activity (HCC827 [3]): inactive

Structure (SMILES): N#Cc1cncc(COc2cc(OCc3cccc(-c4ccccc4F)c3Cl)ccc2CNCCCCCCCCNc2cccc3c2C(=O)N(C2CCC(=O)NC2=O)C3=O)c1 (stereo not given)
- Activity [4]: Dose-Dependent Effect
